Laboratory results as given in patent publication US10987371B2 (priority 2017, dated 2021).

Legend:
[1] = test system: Ebola; conditions: mouse, in vivo; cited from earlier work
[2] = test system: ZIKV PLCal_ZV; experiment: microbe, parasite or virus in culture; type: cell-based; conditions: Zika virus, Vero
[3] = test system: ZIKV PLCal_ZV; type: cell-based
[4] = test system: ZIKV nonstructural protein 1 (NS1); type: cell-based
[5] = test system: ZIKV PRVABC59 isolate; conditions: mouse, in vivo
[6] = test system: Vero E6 cells; conditions: African green monkey
[7] = in vivo
[8] = human
[9] = in vivo; conditions: male, C57BL/6, mouse

## CN(C)CCOc1ccc(/C(=C(/CCCl)c2ccccc2)c2ccccc2)cc1 [toremifene]
[1]
  protection of mice: 50%

## NC(=O)c1nc(F)c[nH]c1=O [T-705]
[1]
  protection in IFNAR-/- mice: 100%

## CCN(CC)CCOc1ccc(C(=C(Cl)c2ccccc2)c2ccccc2)cc1 [clomiphene]
[1]
  protection of mice: 90%

## CCC(CC)COC(=O)[C@H](C)N[P@](=O)(OC[C@H]1O[C@@](C#N)(c2ccc3c(N)ncnn23)[C@H](O)[C@@H]1O)Oc1ccccc1 [GS-5734]
[1]
  protection in mice: 100%

## O=c1c(O[C@@H]2O[C@H](CO)[C@@H](O)[C@H](O)[C@H]2O)c(-c2ccc(O)c(O)c2)oc2cc(O)cc(O)c12 [Q3G, Quercetin-3-β-O-D-glucoside]
[2]; read-out: EC50 against ZIKV PLCal_ZV
  EC50: 1200 to 1300 nM
[2]; read-out: EC90 against ZIKV PLCal_ZV
  EC90: ~1500 nM
[3]
  concentration at which complete inhibition of cytopathic effects (CPE) was observed: 6.9 µM
[4]
  concentrations with statistically significant reductions in NS1: ≥ 0.6 µM
[5]
  average weight loss: ~20%
[5]; ip, 50 mg/kg
  animals surviving the infection: 50%
[6]
  cell viability: 100%
[7]; male, C57BL/6, mouse, ip, 400 mg/kg
  time within which all mice died: ≤ 2 days
[7]; mouse
  survival and signs of toxicity: without signs of toxicity
[7]; mouse, ip, 200 mg/kg
  deaths: One mouse
  weight loss of the surviving mice: ~15%
[8]
  calculated maximum recommended starting dose (MRSD): 0.813 mg/kg
  daily dose to start clinical trials: 56.91 mg
[9]
  NOAEL: 100 mg/kg
